Publication PMC3961306, “Comparison of the Cancer Gene Targeting and Biochemical Selectivities of All Targeted Kinase Inhibitors Approved for Clinical Use” (PLoS ONE, 2014)

Experiments:
Test in all cases: Kinase profiling in a biochemical assay panel (mobility shift assays and ELISA), %-inhibition at 1 μM; selectivity entropy
[1] = target: T1, panel of more than 300 wild-type and mutant kinases (313 kinase panel) (Homo sapiens, UniProt Q96KB5)
T1 sequence (Q96KB5 1-322): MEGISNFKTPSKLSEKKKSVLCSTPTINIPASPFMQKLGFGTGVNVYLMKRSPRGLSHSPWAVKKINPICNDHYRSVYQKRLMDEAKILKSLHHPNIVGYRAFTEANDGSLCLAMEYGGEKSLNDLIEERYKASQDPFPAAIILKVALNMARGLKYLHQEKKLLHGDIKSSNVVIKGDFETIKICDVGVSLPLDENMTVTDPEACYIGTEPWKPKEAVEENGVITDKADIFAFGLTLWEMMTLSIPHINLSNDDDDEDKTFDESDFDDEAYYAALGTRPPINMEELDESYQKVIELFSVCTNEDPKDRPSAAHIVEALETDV

[2] = target: panel of more than 300 wild-type and mutant kinases (313 kinase panel) (Homo sapiens, UniProt O14578)
[3] = target: panel of more than 300 wild-type and mutant kinases (313 kinase panel) (Homo sapiens, UniProt P51451)
[4] = target: T2, panel of more than 300 wild-type and mutant kinases (313 kinase panel) (Homo sapiens, UniProt P54760)
T2 sequence (P54760 16-987): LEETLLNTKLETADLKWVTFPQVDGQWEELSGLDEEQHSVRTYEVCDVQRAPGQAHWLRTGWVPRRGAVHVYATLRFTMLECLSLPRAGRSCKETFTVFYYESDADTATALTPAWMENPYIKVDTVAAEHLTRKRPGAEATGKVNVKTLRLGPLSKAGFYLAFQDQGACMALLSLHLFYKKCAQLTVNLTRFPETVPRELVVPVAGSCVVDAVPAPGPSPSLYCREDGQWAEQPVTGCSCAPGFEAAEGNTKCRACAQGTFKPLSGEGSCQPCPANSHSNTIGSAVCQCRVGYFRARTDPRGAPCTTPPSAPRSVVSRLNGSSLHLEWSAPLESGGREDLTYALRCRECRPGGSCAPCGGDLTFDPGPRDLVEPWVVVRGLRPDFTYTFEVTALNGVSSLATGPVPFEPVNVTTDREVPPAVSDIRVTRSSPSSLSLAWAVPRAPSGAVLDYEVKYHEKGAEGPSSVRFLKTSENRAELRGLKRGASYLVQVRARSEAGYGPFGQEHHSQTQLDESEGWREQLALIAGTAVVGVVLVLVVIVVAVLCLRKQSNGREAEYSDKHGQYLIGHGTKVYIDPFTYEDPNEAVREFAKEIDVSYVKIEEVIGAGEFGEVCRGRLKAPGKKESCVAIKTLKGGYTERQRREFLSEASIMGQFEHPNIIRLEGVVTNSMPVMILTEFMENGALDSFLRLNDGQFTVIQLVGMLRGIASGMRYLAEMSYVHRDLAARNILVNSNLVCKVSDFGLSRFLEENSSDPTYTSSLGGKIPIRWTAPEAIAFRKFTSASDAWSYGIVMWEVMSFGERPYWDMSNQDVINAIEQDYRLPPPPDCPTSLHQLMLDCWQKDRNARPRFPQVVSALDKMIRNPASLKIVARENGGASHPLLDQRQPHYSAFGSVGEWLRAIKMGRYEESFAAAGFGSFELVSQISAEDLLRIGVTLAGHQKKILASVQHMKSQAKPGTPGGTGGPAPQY

[5] = target: panel of more than 300 wild-type and mutant kinases (313 kinase panel) (Homo sapiens, UniProt Q13555)
[6] = target: panel of more than 300 wild-type and mutant kinases (313 kinase panel) (Homo sapiens, UniProt Q16620)
[7] = target: panel of more than 300 wild-type and mutant kinases (313 kinase panel) (Homo sapiens, UniProt Q16644)
[8] = target: T3, panel of more than 300 wild-type and mutant kinases (313 kinase panel) (Homo sapiens, UniProt Q8IW41)
T3 sequence (Q8IW41 1-473): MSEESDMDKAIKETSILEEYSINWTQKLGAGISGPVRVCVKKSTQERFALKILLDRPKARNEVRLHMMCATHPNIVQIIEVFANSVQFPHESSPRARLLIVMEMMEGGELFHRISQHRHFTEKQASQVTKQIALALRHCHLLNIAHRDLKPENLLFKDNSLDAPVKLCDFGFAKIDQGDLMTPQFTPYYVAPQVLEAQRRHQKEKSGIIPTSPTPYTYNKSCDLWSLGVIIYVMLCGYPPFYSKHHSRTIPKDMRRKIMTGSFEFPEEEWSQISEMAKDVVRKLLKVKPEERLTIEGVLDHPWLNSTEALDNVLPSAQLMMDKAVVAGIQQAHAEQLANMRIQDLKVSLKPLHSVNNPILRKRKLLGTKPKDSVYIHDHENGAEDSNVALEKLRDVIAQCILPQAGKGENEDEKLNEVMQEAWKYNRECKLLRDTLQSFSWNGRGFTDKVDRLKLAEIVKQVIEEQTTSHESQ

[9] = target: panel of more than 300 wild-type and mutant kinases (313 kinase panel) (Homo sapiens, UniProt Q15375)
[10] = kinase MAPKAPK3, compound at 1 μM
[11] = kinase MAPKAPK5, compound at 1 μM

panel of more than 300 wild-type and mutant kinases (313 kinase panel) (Homo sapiens, UniProt P51451), sequence (P51451 whole entry, change not shown): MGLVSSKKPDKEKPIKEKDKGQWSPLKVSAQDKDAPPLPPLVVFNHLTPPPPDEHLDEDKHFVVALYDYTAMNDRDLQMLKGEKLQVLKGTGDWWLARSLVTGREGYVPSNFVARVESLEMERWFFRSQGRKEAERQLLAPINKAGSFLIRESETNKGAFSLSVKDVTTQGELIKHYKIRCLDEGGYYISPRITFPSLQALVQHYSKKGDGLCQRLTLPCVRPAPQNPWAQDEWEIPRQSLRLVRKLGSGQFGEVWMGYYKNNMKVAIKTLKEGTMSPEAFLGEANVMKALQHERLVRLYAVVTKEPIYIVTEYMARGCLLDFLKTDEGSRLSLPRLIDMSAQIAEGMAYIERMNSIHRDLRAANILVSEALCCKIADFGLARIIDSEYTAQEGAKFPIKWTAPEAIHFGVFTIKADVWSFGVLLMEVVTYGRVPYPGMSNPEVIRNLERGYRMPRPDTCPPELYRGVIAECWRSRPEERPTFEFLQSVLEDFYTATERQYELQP
panel of more than 300 wild-type and mutant kinases (313 kinase panel) (Homo sapiens, UniProt O14578), sequence (O14578 whole entry, change not shown): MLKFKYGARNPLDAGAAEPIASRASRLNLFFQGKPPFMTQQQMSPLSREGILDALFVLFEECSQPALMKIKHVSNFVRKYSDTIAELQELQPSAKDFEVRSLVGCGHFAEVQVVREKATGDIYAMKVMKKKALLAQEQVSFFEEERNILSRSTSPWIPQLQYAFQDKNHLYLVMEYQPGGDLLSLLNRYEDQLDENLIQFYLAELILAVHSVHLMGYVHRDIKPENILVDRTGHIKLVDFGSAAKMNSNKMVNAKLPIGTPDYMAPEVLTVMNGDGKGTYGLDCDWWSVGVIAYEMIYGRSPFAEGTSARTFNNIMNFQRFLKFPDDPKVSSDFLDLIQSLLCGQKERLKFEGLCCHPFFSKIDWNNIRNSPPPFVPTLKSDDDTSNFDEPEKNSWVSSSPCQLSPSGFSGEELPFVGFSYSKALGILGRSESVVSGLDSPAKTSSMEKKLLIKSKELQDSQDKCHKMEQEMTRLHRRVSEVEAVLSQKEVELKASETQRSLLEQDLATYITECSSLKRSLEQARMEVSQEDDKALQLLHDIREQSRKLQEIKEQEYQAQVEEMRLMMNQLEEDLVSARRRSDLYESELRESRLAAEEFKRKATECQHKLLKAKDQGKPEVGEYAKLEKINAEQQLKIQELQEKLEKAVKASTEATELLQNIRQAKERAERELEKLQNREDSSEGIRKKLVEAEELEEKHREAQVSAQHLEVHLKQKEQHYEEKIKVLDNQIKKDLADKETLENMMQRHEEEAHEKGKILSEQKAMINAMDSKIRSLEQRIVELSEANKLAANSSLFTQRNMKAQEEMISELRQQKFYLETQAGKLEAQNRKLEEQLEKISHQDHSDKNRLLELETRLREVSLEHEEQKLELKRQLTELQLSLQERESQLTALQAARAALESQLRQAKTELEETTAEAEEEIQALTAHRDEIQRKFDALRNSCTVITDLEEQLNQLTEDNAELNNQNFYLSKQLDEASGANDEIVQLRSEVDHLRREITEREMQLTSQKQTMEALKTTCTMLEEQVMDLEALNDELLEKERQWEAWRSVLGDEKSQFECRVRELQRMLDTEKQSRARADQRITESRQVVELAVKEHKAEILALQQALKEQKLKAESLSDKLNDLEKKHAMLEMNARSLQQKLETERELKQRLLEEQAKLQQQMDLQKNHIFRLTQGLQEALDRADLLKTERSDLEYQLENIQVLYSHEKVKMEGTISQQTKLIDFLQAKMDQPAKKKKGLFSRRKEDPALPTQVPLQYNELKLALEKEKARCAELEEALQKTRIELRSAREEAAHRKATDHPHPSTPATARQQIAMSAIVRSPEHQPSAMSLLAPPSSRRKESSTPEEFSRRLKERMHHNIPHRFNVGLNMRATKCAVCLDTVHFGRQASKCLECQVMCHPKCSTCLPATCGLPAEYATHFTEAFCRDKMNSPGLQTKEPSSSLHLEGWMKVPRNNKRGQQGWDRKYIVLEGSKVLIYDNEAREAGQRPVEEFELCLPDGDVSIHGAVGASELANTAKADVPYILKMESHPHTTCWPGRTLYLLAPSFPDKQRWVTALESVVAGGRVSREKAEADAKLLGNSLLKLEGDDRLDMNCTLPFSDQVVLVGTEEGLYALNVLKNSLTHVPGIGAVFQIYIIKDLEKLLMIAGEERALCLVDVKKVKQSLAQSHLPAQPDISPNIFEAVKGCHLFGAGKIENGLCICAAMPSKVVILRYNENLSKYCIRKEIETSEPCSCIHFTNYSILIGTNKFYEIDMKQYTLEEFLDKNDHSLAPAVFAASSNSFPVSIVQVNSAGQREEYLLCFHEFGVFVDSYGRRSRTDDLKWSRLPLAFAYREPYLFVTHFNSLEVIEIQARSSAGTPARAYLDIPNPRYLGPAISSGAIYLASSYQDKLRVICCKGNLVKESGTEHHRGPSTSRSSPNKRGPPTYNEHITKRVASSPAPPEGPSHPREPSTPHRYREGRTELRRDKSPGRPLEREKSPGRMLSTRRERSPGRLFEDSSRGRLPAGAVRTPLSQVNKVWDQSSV
panel of more than 300 wild-type and mutant kinases (313 kinase panel) (Homo sapiens, UniProt Q15375), sequence (Q15375 28-998, change not shown): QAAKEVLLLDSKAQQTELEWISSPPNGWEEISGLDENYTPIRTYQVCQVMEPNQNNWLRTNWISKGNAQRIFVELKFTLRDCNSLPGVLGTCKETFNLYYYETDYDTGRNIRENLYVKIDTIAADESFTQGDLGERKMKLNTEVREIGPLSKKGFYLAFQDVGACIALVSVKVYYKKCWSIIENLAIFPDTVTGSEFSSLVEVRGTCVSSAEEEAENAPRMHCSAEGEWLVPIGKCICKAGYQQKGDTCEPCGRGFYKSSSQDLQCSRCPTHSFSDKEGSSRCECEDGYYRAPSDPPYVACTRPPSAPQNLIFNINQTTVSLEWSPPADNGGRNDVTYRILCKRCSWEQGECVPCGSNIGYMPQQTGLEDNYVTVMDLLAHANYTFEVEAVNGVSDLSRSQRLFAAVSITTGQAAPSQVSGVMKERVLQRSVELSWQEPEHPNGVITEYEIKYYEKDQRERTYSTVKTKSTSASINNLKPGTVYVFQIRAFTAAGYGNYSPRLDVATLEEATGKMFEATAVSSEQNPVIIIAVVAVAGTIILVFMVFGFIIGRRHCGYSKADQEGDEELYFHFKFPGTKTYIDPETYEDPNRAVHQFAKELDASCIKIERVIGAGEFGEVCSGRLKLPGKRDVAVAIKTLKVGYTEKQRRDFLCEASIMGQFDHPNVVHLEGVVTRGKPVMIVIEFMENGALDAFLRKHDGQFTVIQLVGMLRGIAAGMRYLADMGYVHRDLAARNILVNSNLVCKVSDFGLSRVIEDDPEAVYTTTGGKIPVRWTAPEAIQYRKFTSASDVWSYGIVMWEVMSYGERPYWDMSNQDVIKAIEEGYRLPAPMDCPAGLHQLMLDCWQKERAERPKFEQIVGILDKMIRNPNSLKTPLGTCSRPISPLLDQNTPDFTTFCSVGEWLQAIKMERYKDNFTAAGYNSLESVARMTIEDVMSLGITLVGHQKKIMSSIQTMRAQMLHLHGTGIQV
panel of more than 300 wild-type and mutant kinases (313 kinase panel) (Homo sapiens, UniProt Q16644), sequence (Q16644 whole entry, change not shown): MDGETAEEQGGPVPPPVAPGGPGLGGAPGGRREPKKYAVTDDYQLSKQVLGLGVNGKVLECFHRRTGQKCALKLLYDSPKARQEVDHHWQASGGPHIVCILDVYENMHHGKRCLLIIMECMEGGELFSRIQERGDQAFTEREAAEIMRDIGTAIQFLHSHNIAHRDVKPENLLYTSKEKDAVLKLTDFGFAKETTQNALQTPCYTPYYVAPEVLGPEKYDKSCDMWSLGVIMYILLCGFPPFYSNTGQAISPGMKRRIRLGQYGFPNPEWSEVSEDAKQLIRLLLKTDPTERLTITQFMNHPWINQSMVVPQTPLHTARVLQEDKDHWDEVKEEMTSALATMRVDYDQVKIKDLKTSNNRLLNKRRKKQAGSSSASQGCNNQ

| Structure (SMILES) | %-inhibition of PBK ([1]; kinase PBK, 1 μM) | %-inhibition of CRIK ([2]; kinase CRIK, compound at 1 μM) | %-inhibition, BLK ([3]; kinase BLK, 1 μM compound) | %-inhibition of EPHB4 ([4]; kinase EPHB4, compound at 1 μM) | %-inhibition, CaMK2γ ([5]; 1 µM) | %-inhibition of TRKB ([6]; kinase TRKB, 1 μM) | %-inhibition of MAPKAPK3 [7, 10] | %-inhibition of MAPKAPK5 [8, 11] | %-inhibition, CaMK2γ ([5]; kinase CaMK2γ, 1 μM compound) | %-inhibition of EPHA7 ([9]; kinase EPHA7, compound at 1 μM) | %-inhibition of CRIK ([2]; 1 µM) | %-inhibition, BLK ([3]; 1 µM) | %-inhibition of EPHB4 ([4]; 1 µM) | %-inhibition of EPHA7 ([9]; 1 µM) | %-inhibition of TRKB ([6]; 1 µM) | %-inhibition of MAPKAPK3 ([7]; 1 µM) | %-inhibition of MAPKAPK5 ([8]; 1 µM) | %-inhibition of PBK ([1]; 1 µM) |
| --- | --- | --- | --- | --- | --- | --- | --- | --- | --- | --- | --- | --- | --- | --- | --- | --- | --- | --- |
| CN(C)C/C=C/C(=O)Nc1cc2c(Nc3ccc(F)c(Cl)c3)ncnc2cc1O[C@H]1CCOC1 [afatinib] | -3% |  |  |  |  |  |  |  |  |  |  |  |  |  |  |  |  |  |
| COc1cc(Nc2c(C#N)cnc3cc(OCCCN4CCN(C)CC4)c(OC)cc23)c(Cl)cc1Cl [bosutinib] | -24% | 73% | 84% | 96% | 8% | 62% | -12% | 0% |  |  |  |  |  |  |  |  |  |  |
| COc1cc2nccc(Oc3ccc(NC(=O)C4(C(=O)Nc5ccc(F)cc5)CC4)cc3)c2cc1OC [cabozantinib] | -4.29% | -10% | 100% | 96% |  |  | -9% | -5% | -8% | 99% |  |  |  |  |  |  |  |  |
| C[C@@H](Oc1cc(-c2cnn(C3CCNCC3)c2)cnc1N)c1c(Cl)ccc(F)c1Cl [crizotinib] | -14% | -12% |  | 83% |  | 102% | -13% | -3.19% | -10% |  |  |  |  |  |  |  |  |  |
| CC(C)(C)c1nc(-c2cccc(NS(=O)(=O)c3c(F)cccc3F)c2F)c(-c2ccnc(N)n2)s1 [dabrafenib] | 12% | -2.74% | 80% |  |  | 86% | -11% |  | -5.47% | 13% |  |  |  |  |  |  |  |  |
| Cc1nc(Nc2ncc(C(=O)Nc3c(C)cccc3Cl)s2)cc(N2CCN(CCO)CC2)n1 [dasatinib] |  | 10% | 103% |  |  |  |  |  | -3.57% |  |  |  |  |  |  |  |  |  |
| C#Cc1cccc(Nc2ncnc3cc(OCCOC)c(OCCOC)cc23)c1 [erlotinib] |  |  |  |  | 3% |  |  |  |  |  | 21% | 31% | 33% | 46% | 0.183% | 0.621% | 1.53% | 4.3% |
| CO[C@H]1C[C@@H]2CC[C@@H](C)[C@@](O)(O2)C(=O)C(=O)N2CCCC[C@H]2C(=O)O[C@H]([C@H](C)C[C@@H]2CC[C@@H](OCCO)[C@H](OC)C2)CC(=O)[C@H](C)/C=C(\C)[C@@H](O)[C@@H](OC)C(=O)[C@H](C)C[C@H](C)/C=C/C=C/C=C/1C [everolimus] | -10% | -14% | -7% | -4.49% |  | -0.542% | -15% | -9% | -16% | -4% |  |  |  |  |  |  |  |  |
| O=S(=O)(c1cccc2cnccc12)N1CCCNCC1 [fasudil] | -2.33% | 7% | -2.48% | -5.34% |  | -2.66% | -14% | -1.65% | -3.38% | -5% |  |  |  |  |  |  |  |  |
| Cc1ccc(Nc2nccc(N(C)c3ccc4c(C)n(C)nc4c3)n2)cc1S(N)(=O)=O [pazopanib] | -5% | -2% | 62% | 16% |  |  | -6% | -4% | 0.188% | 12% |  |  |  |  |  |  |  |  |
| Cc1ccc(C(=O)Nc2ccc(CN3CCN(C)CC3)c(C(F)(F)F)c2)cc1C#Cc1cnc2cccnn12 [ponatinib] | -14% | 61% | 97% | 101% |  | 100% |  |  |  |  |  |  |  |  |  |  |  |  |
| CCN(CC)CCNC(=O)c1c(C)[nH]c(/C=C2\C(=O)Nc3ccc(F)cc32)c1C [sunitinib] |  |  | 96% |  |  |  |  |  |  |  |  |  |  |  |  |  |  |  |
| COc1cc2c(Nc3ccc(Br)cc3F)ncnc2cc1OCC1CCN(C)CC1 [vandetanib] | -21% | -2.19% | 89% |  |  | 26% | -2% | -0.931% | -13% | 81% |  |  |  |  |  |  |  |  |
